Several values for one entry are separate records, joined by “and”; a condition that tells them apart may be missing. Equal entries are not always repeated.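 How tested: cells in 96-well plates exposed to compound for 48 hours at five concentrations. Here, GI50 denotes the concentration required for 50% inhibition of growth. TGI marks complete inhibition of growth.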 Where only a bound is given, the exact number is not on record here.

The test system of one test is RPMI-8226 leukemia. Kind of test: NCI anticancer screen, dose series, 48 h.
`Cc1ccc(-n2nc(C(C)(C)C)cc2NC(=O)NCc2cc(F)ccc2Oc2ccc3c(cnn3CCO)c2)cc1`: the GI50 was 3.28 µM and 2.7 µM; the TGI is > 10 µM and 28.7 µM.

Regarding `O=C1c2cccc3cccc(c23)C(=O)N1O`, the TGI was > 100 µM.

With `COc1ccc(Nc2nccc(N3CCN(c4c5ccc(Cl)cc5nc5ccc(OC)cc45)CC3)n2)cc1`, the GI50 is 3.73 µM and the TGI was 28.1 µM.

For `CC(=Nc1ccc(S(N)(=O)=O)cc1)c1c(O)[nH]c2ccccc12`, the GI50 is > 25 µM and the TGI is > 25 µM.

With `CCn1c(-c2nonc2N)nc2ccncc21`, the GI50 is > 25 µM and the TGI was > 25 µM.

Take `CC(C)[O-].CC(C)[O-].CN(CCN(C)Cc1cc(F)cc(F)c1[O-])Cc1cc(F)cc(F)c1[O-].[Ti+4]`: the GI50 was 0.882 µM and the TGI turned out to be 4.44 µM.

For another test, the system named is MOLT-4 leukemia. Put plainly: NCI anticancer screen, dose series, 48 h.
For `Cc1ccc(-n2nc(C(C)(C)C)cc2NC(=O)NCc2cc(F)ccc2Oc2ccc3c(cnn3CCO)c2)cc1`, the GI50 was 9.91 µM and 2.05 µM; the TGI was > 10 µM and 5.23 µM.

For `O=C1c2cccc3cccc(c23)C(=O)N1O`, the TGI was > 100 µM.

For `COc1ccc(Nc2nccc(N3CCN(c4c5ccc(Cl)cc5nc5ccc(OC)cc45)CC3)n2)cc1`, the GI50 was 3.05 µM and the TGI was > 100 µM.

Regarding `CC(=Nc1ccc(S(N)(=O)=O)cc1)c1c(O)[nH]c2ccccc12`, the GI50 is > 25 µM and the TGI is > 25 µM.

With `CCn1c(-c2nonc2N)nc2ccncc21`, the GI50 is > 25 µM and the TGI was > 25 µM.

With `CC(C)[O-].CC(C)[O-].CN(CCN(C)Cc1cc(F)cc(F)c1[O-])Cc1cc(F)cc(F)c1[O-].[Ti+4]`, the GI50 is 0.9 µM and the TGI stood at 8.47 µM.

The test system of another test is SF-268 CNS. Put plainly: NCI anticancer screen, dose series, 48 h.
With `Cc1ccc(-n2nc(C(C)(C)C)cc2NC(=O)NCc2cc(F)ccc2Oc2ccc3c(cnn3CCO)c2)cc1`, the GI50 was > 10 µM and 4.61 µM; the TGI was > 100 µM.

Regarding `O=C1c2cccc3cccc(c23)C(=O)N1O`, the TGI was > 100 µM.

Consider `COc1ccc(Nc2nccc(N3CCN(c4c5ccc(Cl)cc5nc5ccc(OC)cc45)CC3)n2)cc1`, for which the GI50 is 11.8 µM and the TGI was > 100 µM.

For `CC(=Nc1ccc(S(N)(=O)=O)cc1)c1c(O)[nH]c2ccccc12`, the GI50 was > 25 µM and the TGI is > 25 µM.

Consider `CCn1c(-c2nonc2N)nc2ccncc21`, for which the GI50 was > 25 µM and the TGI is > 25 µM.

Regarding `CC(C)[O-].CC(C)[O-].CN(CCN(C)Cc1cc(F)cc(F)c1[O-])Cc1cc(F)cc(F)c1[O-].[Ti+4]`, the GI50 is 1.04 µM and the TGI worked out at 3.22 µM.

The subject of the next test is MCF7 breast. Put plainly: NCI anticancer screen, dose series, 48 h.
Regarding `Cc1ccc(-n2nc(C(C)(C)C)cc2NC(=O)NCc2cc(F)ccc2Oc2ccc3c(cnn3CCO)c2)cc1`, the GI50 is 3.55 µM and 3.26 µM; the TGI was > 10 µM and 51.7 µM.

As for `O=C1c2cccc3cccc(c23)C(=O)N1O`, the TGI is > 100 µM.

As for `COc1ccc(Nc2nccc(N3CCN(c4c5ccc(Cl)cc5nc5ccc(OC)cc45)CC3)n2)cc1`, the GI50 is 3.67 µM and the TGI was > 100 µM.

In the case of `CC(=Nc1ccc(S(N)(=O)=O)cc1)c1c(O)[nH]c2ccccc12`, the GI50 is > 17.5 µM and the TGI is > 25 µM.

For the compound `CCn1c(-c2nonc2N)nc2ccncc21`, the GI50 is > 25 µM and the TGI was > 25 µM.

In the case of `CC(C)[O-].CC(C)[O-].CN(CCN(C)Cc1cc(F)cc(F)c1[O-])Cc1cc(F)cc(F)c1[O-].[Ti+4]`, the GI50 was 0.687 µM and the TGI came to 2.78 µM.

The subject of the next test is SNB-19 CNS. Put plainly: NCI anticancer screen, dose series, 48 h.
As for `Cc1ccc(-n2nc(C(C)(C)C)cc2NC(=O)NCc2cc(F)ccc2Oc2ccc3c(cnn3CCO)c2)cc1`, the GI50 was > 10 µM and 17.9 µM; the TGI was > 100 µM.

As for `O=C1c2cccc3cccc(c23)C(=O)N1O`, the TGI was > 100 µM.

In the case of `COc1ccc(Nc2nccc(N3CCN(c4c5ccc(Cl)cc5nc5ccc(OC)cc45)CC3)n2)cc1`, the GI50 was 18.5 µM and the TGI was > 100 µM.

Regarding `CC(=Nc1ccc(S(N)(=O)=O)cc1)c1c(O)[nH]c2ccccc12`, the GI50 is > 25 µM and the TGI is > 25 µM.

Turning to `CCn1c(-c2nonc2N)nc2ccncc21`, the GI50 was > 25 µM and the TGI was > 25 µM.

Turning to `CC(C)[O-].CC(C)[O-].CN(CCN(C)Cc1cc(F)cc(F)c1[O-])Cc1cc(F)cc(F)c1[O-].[Ti+4]`, the GI50 was 0.909 µM and the TGI came out at 8.15 µM.

In another test the test system is UO-31 renal. Kind of test: NCI anticancer screen, dose series, 48 h.
On to `Cc1ccc(-n2nc(C(C)(C)C)cc2NC(=O)NCc2cc(F)ccc2Oc2ccc3c(cnn3CCO)c2)cc1`, for which the GI50 is 1.33 µM and 2.76 µM; the TGI was > 55.5 µM.

As for `O=C1c2cccc3cccc(c23)C(=O)N1O`, the TGI was > 100 µM.

On to `COc1ccc(Nc2nccc(N3CCN(c4c5ccc(Cl)cc5nc5ccc(OC)cc45)CC3)n2)cc1`, for which the GI50 was 8.26 µM and the TGI was > 100 µM.

Consider `CC(=Nc1ccc(S(N)(=O)=O)cc1)c1c(O)[nH]c2ccccc12`, for which the GI50 was 7.37 µM and the TGI is > 25 µM.

For the compound `CCn1c(-c2nonc2N)nc2ccncc21`, the GI50 is > 25 µM and the TGI was > 25 µM.

As to `CC(C)[O-].CC(C)[O-].CN(CCN(C)Cc1cc(F)cc(F)c1[O-])Cc1cc(F)cc(F)c1[O-].[Ti+4]`, the GI50 was 0.977 µM and the TGI worked out at 5.46 µM.

Another test concerns CAKI-1 renal. Kind of test: NCI anticancer screen, dose series, 48 h.
Take `Cc1ccc(-n2nc(C(C)(C)C)cc2NC(=O)NCc2cc(F)ccc2Oc2ccc3c(cnn3CCO)c2)cc1`: the GI50 was 9.61 µM and 6.5 µM; the TGI is > 100 µM.

For the compound `O=C1c2cccc3cccc(c23)C(=O)N1O`, the TGI is > 100 µM.

`COc1ccc(Nc2nccc(N3CCN(c4c5ccc(Cl)cc5nc5ccc(OC)cc45)CC3)n2)cc1`: the GI50 was 8.93 µM and the TGI was > 100 µM.

With `CC(=Nc1ccc(S(N)(=O)=O)cc1)c1c(O)[nH]c2ccccc12`, the GI50 is 17.1 µM and the TGI is > 25 µM.

As for `CCn1c(-c2nonc2N)nc2ccncc21`, the GI50 is > 25 µM and the TGI is > 25 µM.

For the compound `CC(C)[O-].CC(C)[O-].CN(CCN(C)Cc1cc(F)cc(F)c1[O-])Cc1cc(F)cc(F)c1[O-].[Ti+4]`, the GI50 was 0.874 µM and the TGI amounted to 6.45 µM.

For the next test, the system named is HT29 colon. Kind of test: NCI anticancer screen, dose series, 48 h.
Turning to `Cc1ccc(-n2nc(C(C)(C)C)cc2NC(=O)NCc2cc(F)ccc2Oc2ccc3c(cnn3CCO)c2)cc1`, the GI50 was 0.718 µM and 2.44 µM; the TGI was > 10 µM and 26.6 µM.

For the compound `O=C1c2cccc3cccc(c23)C(=O)N1O`, the TGI is > 100 µM.

For `COc1ccc(Nc2nccc(N3CCN(c4c5ccc(Cl)cc5nc5ccc(OC)cc45)CC3)n2)cc1`, the GI50 was 6.61 µM and the TGI was > 100 µM.

Turning to `CC(=Nc1ccc(S(N)(=O)=O)cc1)c1c(O)[nH]c2ccccc12`, the GI50 is > 25 µM and the TGI is > 25 µM.

Turning to `CCn1c(-c2nonc2N)nc2ccncc21`, the GI50 is > 25 µM and the TGI is > 25 µM.

As to `CC(C)[O-].CC(C)[O-].CN(CCN(C)Cc1cc(F)cc(F)c1[O-])Cc1cc(F)cc(F)c1[O-].[Ti+4]`, the GI50 is 1.72 µM and the TGI stood at 3.81 µM.

The test system of the next test is CCRF-CEM leukemia. Kind of test: NCI anticancer screen, dose series, 48 h.
Consider `Cc1ccc(-n2nc(C(C)(C)C)cc2NC(=O)NCc2cc(F)ccc2Oc2ccc3c(cnn3CCO)c2)cc1`, for which the GI50 is > 10 µM and 3.38 µM; the TGI was > 69.7 µM.

For the compound `O=C1c2cccc3cccc(c23)C(=O)N1O`, the TGI is > 100 µM.

`COc1ccc(Nc2nccc(N3CCN(c4c5ccc(Cl)cc5nc5ccc(OC)cc45)CC3)n2)cc1`: the GI50 was 2.77 µM and the TGI is > 100 µM.

For `CC(=Nc1ccc(S(N)(=O)=O)cc1)c1c(O)[nH]c2ccccc12`, the GI50 is > 25 µM and the TGI was > 25 µM.

As for `CCn1c(-c2nonc2N)nc2ccncc21`, the GI50 was > 25 µM and the TGI is > 25 µM.

Consider `CC(C)[O-].CC(C)[O-].CN(CCN(C)Cc1cc(F)cc(F)c1[O-])Cc1cc(F)cc(F)c1[O-].[Ti+4]`, for which the GI50 was 0.512 µM and the TGI is > 35.1 µM.

The subject of a further test is SF-295 CNS. Kind of test: NCI anticancer screen, dose series, 48 h.
Take `Cc1ccc(-n2nc(C(C)(C)C)cc2NC(=O)NCc2cc(F)ccc2Oc2ccc3c(cnn3CCO)c2)cc1`: the GI50 is > 10 µM and 10.2 µM; the TGI was > 100 µM.

As for `O=C1c2cccc3cccc(c23)C(=O)N1O`, the TGI is > 100 µM.

For `COc1ccc(Nc2nccc(N3CCN(c4c5ccc(Cl)cc5nc5ccc(OC)cc45)CC3)n2)cc1`, the GI50 is 10.7 µM and the TGI was 42.3 µM.

In the case of `CC(=Nc1ccc(S(N)(=O)=O)cc1)c1c(O)[nH]c2ccccc12`, the GI50 is > 25 µM and the TGI was > 25 µM.

With `CCn1c(-c2nonc2N)nc2ccncc21`, the GI50 is > 25 µM and the TGI was > 25 µM.

As to `CC(C)[O-].CC(C)[O-].CN(CCN(C)Cc1cc(F)cc(F)c1[O-])Cc1cc(F)cc(F)c1[O-].[Ti+4]`, the GI50 is 0.71 µM and the TGI was 3.76 µM.

The values above are taken from PubChem BioAssay (NCI).
